In ChEMBL document CHEMBL5131427, “Targeted Discovery of Amantamide B, an Ion Channel Modulating Nonapeptide from a South China Sea Oscillatoria Cyanobacterium” (J Nat Prod, 2022):
The source made the active and inactive calls. The calls are words filed in the database; no cut-off is given here. Square brackets hold non-standard residues; d marks the D form. Peptide text beside a SMILES is read from it. * marks the point of attachment. dNMeF = CN[C@H](Cc1ccccc1)C(=O)O; NMeL = CN[C@@H](CC(C)C)C(=O)O; dNMeV = CN[C@@H](C(=O)O)C(C)C; Butyryl = CCCC(=O)*

What was measured:
K562 = experiment: Cytotoxicity against human K562 cells measured after 72 hrs by MTT assay; type: functional, cell-based; conditions: K562, 72 h
CCRF-CEM = experiment: Cytotoxicity against human CCRF-CEM cells measured after 72 hrs by MTT assay; type: functional, cell-based
[1] = tested on: Primary neocortical neuron; experiment: Suppression of spontaneous calcium oscillation frequency in Swiss-Webster mouse primary neocortical neuron at 10 uM incubated for 45 min by Fluo-4 dye based; type: functional, cell-based
[2] = Cytotoxicity against Swiss-Webster mouse primary neocortical neuron at 10 uM incubated for 45 min by multi minute duration test; type: toxicity, cell-based; conditions: 0.75 h
U-937 = experiment: Cytotoxicity against human U-937 cells measured after 72 hrs by MTT assay; type: functional, cell-based; conditions: U-937, 72 h

Compound | IC50 (K562) [µM] | IC50 (CCRF-CEM) [µM] | Activity [1] | Activity [2] | IC50 (U-937) [µM]
CCCC(=O)N[C@H](C(=O)N(C)[C@@H](CC(C)C)C(=O)N[C@@H](CC(C)C)C(=O)N1CCC[C@H]1C(=O)N(C)[C@@H](C(=O)N[C@H](C(=O)NCC(=O)N(C)[C@H](Cc1ccccc1)C(=O)N1CCC[C@H]1C(=O)OC)[C@@H](C)CC)C(C)C)C(C)C (Butyryl-V[NMeL]LP[dNMeV]IG[dNMeF]P-OMe) | > 25 | 8.3 | Active | Non-Toxic | 6.1
CCCC(=O)N(C)[C@H](C(=O)N(C)[C@@H](CC(C)C)C(=O)N[C@@H](CC(C)C)C(=O)N1CCC[C@H]1C(=O)N(C)[C@@H](C(=O)N[C@H](C(=O)NCC(=O)N(C)[C@H](Cc1ccccc1)C(=O)N1CCC[C@H]1C(=O)OC)[C@@H](C)CC)C(C)C)C(C)C | 21 | 5.6 | Active | Non-Toxic | 7.3
Nc1cc(F)ccc1NC(=O)c1ccc(CNC(=O)/C=C/c2cccnc2)cc1 [TUCIDINOSTAT] | 8.3 | 1 |  |  | 3.3
